From article PMC6230509 (Neuropharmacology, 2018)
Read-outs that look alike come from different tables or passages of the source.

Legend:
[1] = biological target: 5-HT2A receptor; settings: read-out: Ki vs. [3H]ketanserin, ref Stevenson et al. 2000; cited from earlier work
[2] = tested on: head twitch response (5-HT2A receptor-mediated); assay: Head twitch response; format: in vivo, C57BL/6J mice; settings: for activity in the HTR assay (in words): C57BL/6J mice, within the dose range tested; for ED50: Mus musculus, ip
[3] = humans, ref Shulgin and Shulgin 2004, cited from earlier work
[4] = tested on: recombinant human 5-HT2A receptors; settings: ref Arunotayanun et al. 2013; cited from earlier work
[5] = tested on: DOM discriminative stimulus; settings: ref Gatch et al. 2017; cited from earlier work
[6] = tested on: 5-MeO-DMT discriminative stimulus; settings: ref Glennon et al. 1980a; cited from earlier work
[7] = biological target: rat 5-HT2A receptor; settings: read-out: Ki, rat 5-HT2A receptor; [3H]ketanserin; ref Gallaher et al. (1993); cited from earlier work
[8] = read-out: ED50 (95% CI) (mg/kg)
[9] = read-out: ED50 (95% CI) (μmol/kg)
[10] = 0.875 mg/kg IP, duration 30 min
[11] = HTR, IP, male C57BL/6J mice, analysis block 5–30 min depending on drug

SMILES: CCN(CC)CCc1c(-c2ccccc2)[nH]c2ccccc12 [2-phenyl-N,N-diethyltryptamine]
- Ki [1]: 2.8 nM

SMILES: CN(C)CCc1c(-c2ccccc2)[nH]c2ccccc12 [2-phenyl-N,N-dimethyltryptamine]
- Ki [1]: 4.4 nM

SMILES: C=CCN(CC=C)CCc1c[nH]c2ccc(Br)cc12 [5-Br-DALT, 5-bromo-N,N-diallyltryptamine]
- HTR Counts (mean ± SEM) ([2]; 3.5 mg/kg IP, duration 30 min): 5.0 ± 0.3
- HTR Counts (mean ± SEM) ([2]; 7 mg/kg IP, duration 30 min): 10.8 ± 2.7
- HTR Counts (mean ± SEM) ([2]; 14 mg/kg IP, duration 30 min): 8.6 ± 2.7
- HTR Counts (mean ± SEM) ([2]; 28 mg/kg IP, duration 30 min): 1.4 ± 0.4
- HTR Counts (mean ± SEM) ([2]; 56 mg/kg IP, duration 30 min): 1.4 ± 1.4
- activity in the HTR assay (in words) ([2]; IP): active
- ED50 [2, 8]: 4.8 mg/kg
- ED50 [2, 9]: 13.5 µmol/kg

SMILES: C=CCN(CC=C)CCc1c[nH]c2ccc(F)cc12 [5-F-DALT, 5-fluoro-N,N-diallyltryptamine]
- HTR Counts (mean ± SEM) [2, 10]: 9.8 ± 2.6
- HTR Counts (mean ± SEM) ([2]; 1.75 mg/kg IP, duration 30 min): 21.0 ± 5.7
- HTR Counts (mean ± SEM) ([2]; 3.5 mg/kg IP, duration 30 min): 36.0 ± 6.8
- HTR Counts (mean ± SEM) ([2]; 7 mg/kg IP, duration 30 min): 26.8 ± 7.1
- HTR Counts (mean ± SEM) ([2]; 14 mg/kg IP, duration 30 min): 21.0 ± 4.0
- activity in the HTR assay (in words) ([2]; IP): active
- ED50 [2, 8]: 1.58 mg/kg
- ED50 [2, 9]: 5.4 µmol/kg

SMILES: C=CCN(CC=C)CCc1c[nH]c2ccc(OC)cc12 [5-MeO-DALT, 5-methoxy-N,N-diallyltryptamine]
- HTR Counts (mean ± SEM) ([2]; 1.75 mg/kg IP, duration 20 min): 6.6 ± 1.0
- HTR Counts (mean ± SEM) ([2]; 3.5 mg/kg IP, duration 20 min): 19.8 ± 1.5
- HTR Counts (mean ± SEM) ([2]; 7 mg/kg IP, duration 20 min): 8.8 ± 2.6
- HTR Counts (mean ± SEM) ([2]; 14 mg/kg IP, duration 20 min): 8.0 ± 4.9
- activity in the HTR assay (in words) ([2]; IP): active
- ED50 [2, 8]: 2.25 mg/kg
- ED50 [2, 9]: 7.3 µmol/kg
- duration of psychoactive effects ([3]; oral 12–20 mg): 2 to 4 h
- oral doses producing psychoactive effects ([3]; oral): 12 to 20 mg
- functional activity at recombinant human 5-HT2A receptors [4]: agonist
- substitution in rats trained to discriminate DOM [5]: full substitution

SMILES: CCc1cccc2c(CCN(C)C)c[nH]c12 [7-Ethyl-DMT]
- substitution in rats trained to discriminate 5-MeO-DMT from vehicle [6]: partial substitution

SMILES: C=CCN(CC=C)CCc1c[nH]c2ccccc12 [DALT, N,N-diallyltryptamine]
- HTR Counts (mean ± SEM) [2, 10]: 8.2 ± 2.8
- HTR Counts (mean ± SEM) ([2]; 1.75 mg/kg IP, duration 30 min): 6.8 ± 2.6
- HTR Counts (mean ± SEM) ([2]; 3.5 mg/kg IP, duration 30 min): 14.2 ± 4.3
- HTR Counts (mean ± SEM) ([2]; 7 mg/kg IP, duration 30 min): 21.8 ± 4.4
- HTR Counts (mean ± SEM) ([2]; 14 mg/kg IP, duration 30 min): 20.6 ± 2.7
- activity in the HTR assay (in words) ([2]; IP): active
- ED50 (95% CI) (mg/kg) [2, 11]: 3.42 (2.44–4.79) mg/kg
- ED50 (95% CI) (μmol/kg) [2, 11]: 12.3 (8.8–17.3) μmol/kg

SMILES: CN(C)CCc1c[nH]c2ccc(O)cc12 [bufotenine]
- Ki [7]: 520 nM

SMILES: CN(C)CCc1c[nH]c2cccc(O)c12 [psilocin, 4-hydroxy-DMT]
- Ki [7]: 5100 nM
